According to patent US12122816B2, “Long acting peptide tyrosine tyrosine (PYY) analogs and methods of use” (Intarcia Therapeutics, Inc., priority 2020, dated 2024):

How the values were obtained:
human Y2 receptor = biological target: T1, human Y2 receptor (Homo sapiens, UniProt P49146); experiment: NPY receptor functional assay (cAMP, HEK-CNG cells, ACTOne membrane potential dye); format: cell-based; conditions: NPY2R pEC50, HEK-CNG cells; standard PYY(3-36); species (human or rat) not given
T1 sequence (P49146 1-381): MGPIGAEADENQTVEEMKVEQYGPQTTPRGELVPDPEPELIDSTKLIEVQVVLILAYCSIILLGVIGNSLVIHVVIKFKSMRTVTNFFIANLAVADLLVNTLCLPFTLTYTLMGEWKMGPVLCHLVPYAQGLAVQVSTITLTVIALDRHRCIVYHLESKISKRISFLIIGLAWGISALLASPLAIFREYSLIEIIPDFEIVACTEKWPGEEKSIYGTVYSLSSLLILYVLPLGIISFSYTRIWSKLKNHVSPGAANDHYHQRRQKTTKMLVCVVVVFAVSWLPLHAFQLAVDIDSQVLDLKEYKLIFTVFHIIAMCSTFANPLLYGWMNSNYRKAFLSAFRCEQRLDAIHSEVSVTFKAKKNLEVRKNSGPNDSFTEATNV
In short: (§1)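 HEK-CNG cells stably expressing each human receptor; peptides added in triplicate for 50 minutes at room temperature, with agonism read as decreased isoproterenol-induced membrane potential dye signal (final/initial read).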

human Y5 receptor = biological target: T2, human Y5 receptor (Homo sapiens, UniProt Q15761); experiment: as above; format: cell-based; conditions: NPY5R pEC50, HEK-CNG cells; standard NPY; species (human or rat) not given
T2 sequence (Q15761 1-445): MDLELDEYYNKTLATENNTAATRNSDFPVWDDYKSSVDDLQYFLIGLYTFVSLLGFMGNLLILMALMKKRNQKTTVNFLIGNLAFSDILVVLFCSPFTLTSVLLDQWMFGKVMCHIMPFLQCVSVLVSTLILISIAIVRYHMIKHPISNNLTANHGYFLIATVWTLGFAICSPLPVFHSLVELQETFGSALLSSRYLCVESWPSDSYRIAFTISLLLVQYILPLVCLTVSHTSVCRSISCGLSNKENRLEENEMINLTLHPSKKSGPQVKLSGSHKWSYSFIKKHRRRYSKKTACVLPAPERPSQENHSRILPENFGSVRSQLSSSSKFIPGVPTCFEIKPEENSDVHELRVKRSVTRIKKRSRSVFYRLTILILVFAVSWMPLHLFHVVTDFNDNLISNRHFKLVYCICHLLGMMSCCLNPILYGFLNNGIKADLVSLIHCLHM
In short: as §1

[1] = In vitro metabolic stability in kidney brush border membranes (kBBM); format: in vitro ADME; conditions: pH 7.4, human kBBM 50 mcg protein/mL, 1 mcM peptide, 37° C., read-out: hkBBM t½ (converted)
Protocol: In vitro incubations in kidney brush border membrane (kBBM) preparations were used to characterize the ability of peptides to resist degradation by proteases and peptidases in the systemic circulation. kBBM were selected because they contain a high concentration of a diverse set of proteases and peptidases, many of which are present throughout the body.
Brush border membranes from rat and human kidney tissue were prepared via centrifugation and stored at −70° C. Thawed stocks of rat or human kBBM were diluted to the appropriate concentration in 25 mM HEPES buffer (pH 7.4) containing 1% casein and aliquoted into a 96-well plate. The kBBM solutions were pre-warmed for 10 minutes at 37° C. […] The final concentration of kBBM in each incubation was 50 mcg protein/mL. Reactions were maintained at 37° C. in a shaking water bath. […] Quenched samples were centrifuged at 2178×g for 10 min and then a portion of the supernatants were transferred to a clean 96-well plate and diluted 1:1 with water. Samples were analyzed by UPLC-MS/MS.

[2] = In vitro stability in subcutaneous (SC) tissue homogenates; format: in vitro ADME; conditions: subcutaneous tissue homogenate, pH 7.4; human SC tissue homogenate 1.0 mg protein/mL, 10 mcM peptide, 37° C.; read-out: (H)SC tissue stability t½ (converted)
Protocol: In vitro incubations in subcutaneous (SC) tissue homogenates were used to characterize the ability of peptides to resist pre-systemic degradation by proteases and peptidases after SC administration. […] Peptides with high SC bioavailability are stable in this assay, while peptides with low SC bioavailability are unstable in this assay.
Human SC tissue was homogenized in cold 25 mM HEPES buffer (pH 7.4, 10-fold volume based on sample weight), and then filtered through a double layer of cheesecloth. The filtrates were aliquoted, flash frozen on a methanol/dry ice bath and stored at −80° C. The protein concentration of each pooled batch was determined using the BCA protein assay. Thawed stocks of human SC tissue homogenates were diluted to 1.0 mg protein/mL in 25 mM HEPES buffer (pH 7.4) and aliquoted into a 96-well plate. The diluted SC homogenates were pre-warmed for 10 minutes at 37° C. […] Reactions were maintained at 37° C. in a shaking water bath. […] Quenched samples were centrifuged at 2178×g for 10 min and then a portion of the supernatants were transferred to a clean 96-well plate and diluted 1:10 with water. Samples were analyzed by UPLC-MS/MS.

human Y1 receptor = biological target: T3, human Y1 receptor (Homo sapiens, UniProt P25929); experiment: NPY receptor functional assay (cAMP, HEK-CNG cells, ACTOne membrane potential dye); format: cell-based
T3 sequence (P25929 1-384): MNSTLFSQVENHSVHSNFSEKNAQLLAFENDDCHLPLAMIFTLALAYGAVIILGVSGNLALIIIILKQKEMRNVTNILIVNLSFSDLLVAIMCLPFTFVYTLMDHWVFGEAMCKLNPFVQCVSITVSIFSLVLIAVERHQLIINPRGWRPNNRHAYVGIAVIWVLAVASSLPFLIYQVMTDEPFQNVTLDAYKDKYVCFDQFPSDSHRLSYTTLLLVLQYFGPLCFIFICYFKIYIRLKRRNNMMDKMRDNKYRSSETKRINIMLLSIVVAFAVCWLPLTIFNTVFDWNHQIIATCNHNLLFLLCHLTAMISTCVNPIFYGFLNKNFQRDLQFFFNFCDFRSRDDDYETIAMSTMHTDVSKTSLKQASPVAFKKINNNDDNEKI
Description: The NPY family of G-protein coupled receptors include Y1, Y2, Y4, and Y5 in humans and rats. […] Following agonist binding, the receptor-G protein complex activates a downstream intracellular signaling cascade which leads to inhibition of adenylate cyclase and a reduction in intracellular cAMP levels.
HEK-CNG cells stably expressing the human or rat Y1, Y2, Y4 or Y5 receptors (Codex Biosolutions) were used to characterize the functional potency of peptide agonists using the ActOne™ membrane potential dye kit (Codex Biosolutions). In addition to each NPY receptor, each cell line encodes a proprietary exogenous Cyclic Nucleotide-Gated (CNG) channel (Codex Biosolutions). The channel is activated by elevated intracellular levels of cAMP, resulting in ion flux and cell membrane depolarization which can be detected with a calcium sensitive dye or fluorescent membrane potential (MP) dye. Cells were carried in growth media containing 90% DMEM, 10% FBS, 250 mcg/mL G418 and 1 mcg/mL puromycin for no more than 15 passages.
Prior to testing, cells were counted and dispensed at 14,000 cells per well (Y1, Y4 and Y5) or 28,000 cells per well (Y2) into black 384 well Poly-D-Lysine plates at 20 mcL per well. Covered plates were then incubated at room temperature for 30 minutes followed by an overnight incubation at 37° C. in 5% C02. The following day, media was removed and wells were washed once with 40 mcL Dulbecco's phosphate buffered saline. […] Ten microliters of experimental peptide or peptide standard was added in triplicate to wells and incubated for 50 minutes at room temperature in the dark. Following this incubation step, plates were read again as before (final read).
NPY receptor activation, leading to a reduction in intracellular cAMP levels, is detected as a decrease in isoproteranol induced fluorescent signal. Peptide standard and experimental values were initially transformed in excel using the formula: final read/initial read. […] Normalized data was analyzed from triplicate tests and used to estimate the EC50 for each test peptide on each receptor. Data was fit in GraphPad Prism software (v8.2.1) using a 3-parameter logistic curve model: Y=Bottom+(Top−Bottom)/(1+10^((LogEC50−X))). EC50 values were converted to pEC50 values using the formula: pEC50=−Log(EC50).

SMILES	EC50 (human Y2 receptor)	EC50 (human Y5 receptor)	half-life at 1 mcM [1]	half-life at 10 mcM [2]	EC50 (human Y1 receptor)
CC(C)C[C@H](NC(=O)[C@H](CC(=O)O)NC(=O)[C@H](CCCCN)NC(=O)[C@H](Cc1ccc(O)cc1)NC(=O)[C@H](Cc1ccc(O)cc1)NC(=O)[C@H](CCCNC(=N)N)NC(=O)[C@H](CC(=O)O)NC(=O)[C@H](Cc1c[nH]c2ccccc12)NC(=O)[C@H](CCC(=O)O)NC(=O)[C@H](CCCCN)NC(=O)[C@@H]1CCCN1C(=O)[C@H](CO)NC(=O)[C@H](C)NC(=O)[C@H](CC(=O)O)NC(=O)[C@H](CCC(=O)O)NC(=O)CNC(=O)[C@@H]1CCCN1C(=O)[C@H](CCCCNC(=O)CC[C@H](NC(=O)CC[C@H](NC(=O)CCCCCCCCCCCCCCCCC(=O)O)C(=O)O)C(=O)O)NC(=O)[C@H](CCC(=O)O)NC(=O)[C@@H]1CCCN1C(=O)[C@H](CCCCN)NC(=O)[C@@H]1CCCN1)C(=O)N[C@@H](CCCNC(=N)N)C(=O)N[C@@H](Cc1c[nH]cn1)C(=O)N[C@@H](Cc1ccc(O)cc1)C(=O)N[C@@H](CC(C)C)C(=O)N[C@@H](CC(N)=O)C(=O)N[C@@H](Cc1c[nH]c2ccccc12)C(=O)N[C@@H](CC(C)C)C(=O)N[C@H](C(=O)N[C@@H](CCCNC(=N)N)C(=O)N[C@@H](CCC(N)=O)C(=O)N[C@@H](CCCNC(=N)N)C(=O)N[C@@H](Cc1ccccc1)C(N)=O)[C@@H](C)O [Compound A35]	0.0316 nM	0.794 nM	336 min	78 min	–
CC(C)C[C@H](NC(=O)[C@H](CC(=O)O)NC(=O)[C@H](CCCCN)NC(=O)[C@H](Cc1ccc(O)cc1)NC(=O)[C@H](Cc1ccc(O)cc1)NC(=O)[C@H](CCCNC(=N)N)NC(=O)[C@H](CC(N)=O)NC(=O)[C@H](Cc1c[nH]c2ccccc12)NC(=O)[C@H](CCC(=O)O)NC(=O)[C@H](CCCCN)NC(=O)[C@@H]1CCCN1C(=O)[C@H](CO)NC(=O)[C@H](C)NC(=O)[C@H](CC(=O)O)NC(=O)[C@H](CCC(=O)O)NC(=O)CNC(=O)[C@@H]1CCCN1C(=O)[C@H](CCCCNC(=O)CC[C@H](NC(=O)CC[C@H](NC(=O)CCCCCCCCCCCCCCCCC(=O)O)C(=O)O)C(=O)O)NC(=O)[C@H](CCC(=O)O)NC(=O)[C@@H]1CCCN1C(=O)[C@H](CCCCN)NC(=O)[C@@H]1CCCN1)C(=O)N[C@@H](CCCNC(=N)N)C(=O)N[C@@H](Cc1c[nH]cn1)C(=O)N[C@@H](Cc1ccc(O)cc1)C(=O)N[C@@H](CC(C)C)C(=O)N[C@@H](CC(N)=O)C(=O)N[C@@H](Cc1c[nH]c2ccccc12)C(=O)N[C@@H](CC(C)C)C(=O)N[C@H](C(=O)N[C@@H](CCCNC(=N)N)C(=O)N[C@@H](CCC(N)=O)C(=O)N[C@@H](CCCNC(=N)N)C(=O)N[C@@H](Cc1ccccc1)C(N)=O)[C@@H](C)O [Compound A38]	–	3.98 nM	–	–	2.51 nM
CC(C)C[C@H](NC(=O)[C@H](Cc1ccc(O)cc1)NC(=O)[C@H](Cc1c[nH]cn1)NC(=O)[C@H](CCCNC(=N)N)NC(=O)[C@H](CC(C)C)NC(=O)[C@H](CC(=O)O)NC(=O)[C@@H](CCCCNC(=O)CC[C@H](NC(=O)COCCOCCNC(=O)COCCOCCNC(=O)CC[C@H](NC(=O)CCCCCCCCCCCCCCCCCCC(=O)O)C(=O)O)C(=O)O)NC(=O)[C@H](Cc1ccc(O)cc1)NC(=O)[C@H](Cc1ccc(O)cc1)NC(=O)[C@H](CCCNC(=N)N)NC(=O)[C@H](CC(N)=O)NC(=O)[C@H](Cc1c[nH]c2ccccc12)NC(=O)[C@H](CCC(=O)O)NC(=O)[C@H](CCC(=O)O)NC(=O)[C@@H]1CCCN1C(=O)[C@H](CO)NC(=O)[C@H](C)NC(=O)[C@H](CC(=O)O)NC(=O)[C@H](CCCCN)NC(=O)CNC(=O)[C@@H]1CCCN1C(=O)[C@H](C)NC(=O)[C@H](CCC(=O)O)NC(=O)[C@@H]1CCCN1C(=O)[C@H](CCCCN)NC(=O)[C@@H]1CCCN1)C(=O)N[C@@H](CC(N)=O)C(=O)N[C@@H](Cc1c[nH]c2ccccc12)C(=O)N[C@@H](CC(C)C)C(=O)N[C@H](C(=O)N[C@@H](CCCNC(=N)N)C(=O)N[C@@H](CCC(N)=O)C(=O)N[C@@H](CCCNC(=N)N)C(=O)N[C@@H](Cc1ccccc1)C(N)=O)[C@@H](C)O [Compound A65]	0.0631 nM	2.51 nM	–	–	10 nM
